Assay results taken from the NIST ThermoML archive (doi:10.1021/acs.jced.6b00121).

Assay: xn = mol fraction of the nth substance listed
Conditions: 100 kPa, Liquid; for mass density: Vibrating tube method; for viscosity: Falling or rolling sphere viscometry

CCCCCCCCCCC [undecane] + CCCCO
Conditions | mass density [kg/m3] | viscosity [mPa·s]
323.15 K, x1 = 0.1007 | 770.78 | –
323.15 K, x1 = 0.2004 | 759.07 | –
323.15 K, x1 = 0.299 | 749.84 | –
323.15 K, x1 = 0.3981 | 742.34 | –
323.15 K, x1 = 0.5006 | 735.91 | –
323.15 K, x1 = 0.5964 | 731 | –
323.15 K, x1 = 0.6982 | 726.58 | –
323.15 K, x1 = 0.7979 | 722.99 | –
323.15 K, x1 = 0.9 | 719.99 | –
323.15 K, x1 = 1 | 718.11 | –
328.15 K, x1 = 0.1007 | 766.71 | 1.074
328.15 K, x1 = 0.2004 | 754.97 | 0.945
328.15 K, x1 = 0.299 | 745.75 | 0.853
328.15 K, x1 = 0.3981 | 738.26 | 0.79
328.15 K, x1 = 0.5006 | 731.86 | 0.744
328.15 K, x1 = 0.5964 | 726.99 | 0.716
328.15 K, x1 = 0.6982 | 722.61 | 0.693
328.15 K, x1 = 0.7979 | 719.07 | 0.685
328.15 K, x1 = 0.9 | 716.13 | 0.68
328.15 K, x1 = 1 | 714.39 | 0.692
333.15 K, x1 = 0.1007 | 762.58 | 0.974
333.15 K, x1 = 0.2004 | 750.83 | 0.86
333.15 K, x1 = 0.299 | 741.61 | 0.782
333.15 K, x1 = 0.3981 | 734.14 | 0.729
333.15 K, x1 = 0.5006 | 727.78 | 0.69
333.15 K, x1 = 0.5964 | 722.94 | 0.667
333.15 K, x1 = 0.6982 | 718.61 | 0.647
333.15 K, x1 = 0.7979 | 715.12 | 0.641
333.15 K, x1 = 0.9 | 712.24 | 0.638
333.15 K, x1 = 1 | 710.68 | 0.651
338.15 K, x1 = 0.1007 | 758.39 | 0.882
338.15 K, x1 = 0.2004 | 746.61 | 0.785
338.15 K, x1 = 0.299 | 737.42 | 0.719
338.15 K, x1 = 0.3981 | 729.97 | 0.675
338.15 K, x1 = 0.5006 | 723.65 | 0.641
338.15 K, x1 = 0.5964 | 718.86 | 0.622
338.15 K, x1 = 0.6982 | 714.57 | 0.606
338.15 K, x1 = 0.7979 | 711.13 | 0.602
338.15 K, x1 = 0.9 | 708.34 | 0.601
338.15 K, x1 = 1 | 706.95 | 0.615
343.15 K, x1 = 0.1007 | 754.12 | 0.802
343.15 K, x1 = 0.2004 | 742.34 | 0.72
343.15 K, x1 = 0.299 | 733.15 | 0.663
343.15 K, x1 = 0.3981 | 725.75 | 0.626
343.15 K, x1 = 0.5006 | 719.48 | 0.598
343.15 K, x1 = 0.5964 | 714.72 | 0.582
343.15 K, x1 = 0.6982 | 710.49 | 0.569
343.15 K, x1 = 0.7979 | 707.12 | 0.566
343.15 K, x1 = 0.9 | 704.41 | 0.567
343.15 K, x1 = 1 | 703.22 | 0.58
348.15 K, x1 = 0.1007 | 749.78 | 0.732
348.15 K, x1 = 0.2004 | 738.01 | 0.662
348.15 K, x1 = 0.299 | 728.84 | 0.614
348.15 K, x1 = 0.3981 | 721.47 | 0.583
348.15 K, x1 = 0.5006 | 715.24 | 0.56
348.15 K, x1 = 0.5964 | 710.54 | 0.546
348.15 K, x1 = 0.6982 | 706.38 | 0.535
348.15 K, x1 = 0.7979 | 703.07 | 0.534
348.15 K, x1 = 0.9 | 700.47 | 0.536
348.15 K, x1 = 1 | 699.47 | 0.549
353.15 K, x1 = 0.1007 | 745.37 | 0.671
353.15 K, x1 = 0.2004 | 733.6 | 0.611
353.15 K, x1 = 0.299 | 724.46 | 0.57
353.15 K, x1 = 0.3981 | 717.14 | 0.544
353.15 K, x1 = 0.5006 | 710.97 | 0.525
353.15 K, x1 = 0.5964 | 706.32 | 0.514
353.15 K, x1 = 0.6982 | 702.22 | 0.506
353.15 K, x1 = 0.7979 | 698.99 | 0.505
353.15 K, x1 = 0.9 | 696.51 | 0.508
353.15 K, x1 = 1 | 695.72 | 0.522
358.15 K, x1 = 0.1007 | 740.87 | 0.617
358.15 K, x1 = 0.2004 | 729.1 | 0.565
358.15 K, x1 = 0.299 | 720.01 | 0.531
358.15 K, x1 = 0.3981 | 712.73 | 0.51
358.15 K, x1 = 0.5006 | 706.63 | 0.493
358.15 K, x1 = 0.5964 | 702.04 | 0.485
358.15 K, x1 = 0.6982 | 698.02 | 0.477
358.15 K, x1 = 0.7979 | 694.88 | 0.479
358.15 K, x1 = 0.9 | 692.52 | 0.483
358.15 K, x1 = 1 | 691.96 | 0.497
363.15 K, x1 = 0.1007 | 736.28 | 0.569
363.15 K, x1 = 0.2004 | 724.55 | 0.525
363.15 K, x1 = 0.299 | 715.49 | 0.497
363.15 K, x1 = 0.3981 | 708.28 | 0.479
363.15 K, x1 = 0.5006 | 702.24 | 0.465
363.15 K, x1 = 0.5964 | 697.72 | 0.458
363.15 K, x1 = 0.6982 | 693.78 | 0.452
363.15 K, x1 = 0.7979 | 690.73 | 0.455
363.15 K, x1 = 0.9 | 688.52 | 0.46
363.15 K, x1 = 1 | 688.18 | 0.475
